For the assay, the system named is ABCA-1 gene. Put plainly: compounds tested and found to elevate cellular expression of the ABCA-1 gene (Examples 1-6; test not named). The class given is cell-based. The protocol: Activity testing is conducted as described in those patents and patent applications referenced above, and in the Examples below, and by methods apparent to one skilled in the art.
As for `CC(=O)c1ccc(NC(=O)Nc2cccc(Cl)c2)cc1` [N-(4-acetylphenyl)[(3-chlorophenyl)amino]carboxamide], the “cellular expression of the ABCA-1 gene” value is listed as “elevate cellular expression of the ABCA-1 gene”.
Next, `COc1ccc(CN(CCc2ccc(OC)c(OC)c2)C(=O)C2CC2)cc1` [N-[2-(3,4-dimethoxyphenyl)ethyl]cyclopropyl-N-[(4-methoxyphenyl)methyl]-carboxamide]: “elevate cellular expression of the ABCA-1 gene”.
Next, `N#Cc1cccc(C(=O)Nc2nc3ccc(Cl)cc3s2)c1` [N-(6-chlorobenzothiazol-2-yl)(3-cyanophenyl)carboxamide]: “elevate cellular expression of the ABCA-1 gene”.
The same measure for `O=C(Nc1ccc2c(c1)OCCO2)Nc1ccccc1Br` [N-(2H,3H-benzo[e]1,4-dioxin-6-yl)[(2-bromophenyl)amino]carboxamide]: “elevate cellular expression of the ABCA-1 gene”.
Regarding `Cc1ccc(-c2csc(-n3ncc(C(=O)NCCC(C)C)c3C(C)C)n2)cc1` [5-isopropyl-1-(4-p-tolyl-thiazol-2-yl)-1H-pyrazole-4-carboxylic acid (3-methyl-butyl)-amide], the “cellular expression of the ABCA-1 gene” value is “elevate cellular expression of the ABCA-1 gene”.
Next, `O=C(NC1=NCCS1)c1ccc(Cl)c(Cl)c1` [(3,4-dichlorophenyl)-N-(1,3-thiazolin-2-yl)carboxamide]: “elevate cellular expression of the ABCA-1 gene”.
The same measure for `O=C(Nc1ccc(Cl)cc1)Nc1ccccc1C(=O)O` [2-{[N-(4-chlorophenyl)carbamoyl]amino}benzoic acid]: “elevate cellular expression of the ABCA-1 gene”.
Next, `COc1ccc(/C(N)=N\OC(=O)c2ccccc2OC)cc1` [(1E)-2-amino-1-aza-2-(4-methoxyphenyl)vinyl 2-methoxybenzoate]: “elevate cellular expression of the ABCA-1 gene”; `CN(C)c1ccc(C(=O)NC2=NCCS2)cc1` [[4-(dimethylamino)phenyl]-N-(1,3-thiazolin-2-yl)carboxamide]: “elevate cellular expression of the ABCA-1 gene”; `Cc1ccc(C(=O)NC2=NC(=O)CS2)cc1` [(4-methylphenyl)-N-(4-oxo(1,3-thiazolin-2-yl))carboxamide]: “elevate cellular expression of the ABCA-1 gene”.
Regarding `O=C(Nc1nc(-c2ccc(Cl)cc2)cs1)c1ccc(-c2ccccc2)cc1` [N-[4-(4-chlorophenyl)(1,3-thiazol-2-yl)](4-phenylphenyl)carboxamide], the “cellular expression of the ABCA-1 gene” value is given as “elevate cellular expression of the ABCA-1 gene”.
In the case of `O=C(NC1=NCCS1)c1ccc(C(F)(F)F)cc1` [N-(1,3-thiazolin-2-yl)[4-(trifluoromethyl)phenyl]carboxamide], the “cellular expression of the ABCA-1 gene” value was “elevate cellular expression of the ABCA-1 gene”.
The same measure for `O=C(NC1=NCCS1)c1ccc2c(c1)OCO2` [2H-benzo[3,4-d]1,3-dioxolan-5-yl-N-(1,3-thiazolin-2-yl)carboxamide]: “elevate cellular expression of the ABCA-1 gene”; for `O=C(NCCc1ccccn1)c1ccc([N+](=O)[O-])cc1Cl` [(2-chloro-4-nitrophenyl)-N-(2-(2-pyridyl)ethyl)carboxamide]: “elevate cellular expression of the ABCA-1 gene”.
Take `CCCCCCNC(=O)c1cnn(-c2nc(-c3ccc(Br)cc3)cs2)c1CC` [{1-[4-(4-bromophenyl)(1,3-thiazol-2-yl)]-5-ethylpyrazol-4-yl}-N-hexylcarboxamide]: the “cellular expression of the ABCA-1 gene” value was “elevate cellular expression of the ABCA-1 gene”.
On to `COc1cccc(C(=O)NC2=NC(=O)CS2)c1` [(3-methoxyphenyl)-N-(4-oxo(1,3-thiazolin-2-yl))carboxamide], for which the “cellular expression of the ABCA-1 gene” value is “elevate cellular expression of the ABCA-1 gene”.
The same measure for `O=C(Nc1ncc(-c2ccccc2Cl)s1)c1ccco1` [N-[5-(2-chlorophenyl)(1,3-thiazol-2-yl)]-2-furylcarboxamide]: “elevate cellular expression of the ABCA-1 gene”; for `O=C(NC1=NCCS1)c1ccc(F)c(F)c1` [(3,4-difluorophenyl)-N-(1,3-thiazolin-2-yl)carboxamide]: “elevate cellular expression of the ABCA-1 gene”; for `CCCCCNC(=O)c1cnn(-c2nc(-c3ccc(C)cc3)cs2)c1C` [{5-methyl-1-[4-(4-methylphenyl)(1,3-thiazol-2-yl)]pyrazol-4-yl}-N-pentylcarboxamide]: “elevate cellular expression of the ABCA-1 gene”.
The same measure for `CCOc1ccc(NC(=O)Nc2ccc(Cl)cc2)cc1` [N-(4-ethoxyphenyl)[(4-chlorophenyl)amino]carboxamide]: “elevate cellular expression of the ABCA-1 gene”.
Next, `CCc1c(C(=O)NC23CC4CC(CC(C4)C2)C3)cnn1-c1nc(-c2ccc(C)cc2)cs1` [N-adamantanyl {5-ethyl-1-[4-(4-methylphenyl)(1,3-thiazol-2-yl)]pyrazol-4-yl}carboxamide]: “elevate cellular expression of the ABCA-1 gene”.
Take `Cc1ccc(-c2csc(-n3ncc(C(=O)NC(C)c4ccccc4)c3C(C)C)n2)cc1` (centres unmarked) [5-isopropyl-1-(4-p-tolyl-thiazol-2-yl)-1H-pyrazole-4-carboxylic acid (1-phenyl-ethyl)-amide]: the “cellular expression of the ABCA-1 gene” value is “elevate cellular expression of the ABCA-1 gene”.
In the case of `CCC(c1nc2ccccc2c(=O)n1-c1ccc(Cl)cc1)N(CCOC)C(=O)Nc1ccc(F)cc1F` (centres unmarked) [[(2,4-difluorophenyl)amino]-N-{[3-(4-chlorophenyl)-4-oxo(3-hydroquinazolin-2-yl)]propyl}-N-(2-methoxyethyl)carboxamide], the “cellular expression of the ABCA-1 gene” value was “elevate cellular expression of the ABCA-1 gene”.
Consider `O=C(Nc1nc2ccccc2s1)c1ccncc1` [N-benzothiazol-2-yl-4-pyridylcarboxamide], for which the “cellular expression of the ABCA-1 gene” value is on record as “elevate cellular expression of the ABCA-1 gene”.
As to `Nc1nc(-c2ccc(Cl)cc2)nc2sc3c(c12)CCCCC3` [2-(4-chlorophenyl)-5,6,7,8,9-pentahydrocyclohepta[1,2-b]pyrimidino[5,4-d]thiophene-4-ylamine], the “cellular expression of the ABCA-1 gene” value is reported as “elevate cellular expression of the ABCA-1 gene”.
As for `C1=C(c2ccccc2)Nc2nc3ccccc3n2C1c1ccccc1` (centres unmarked) [2,4-diphenyl-1,4,5-trihydropyrimidino[1,2-a]benzimidazole], the “cellular expression of the ABCA-1 gene” value was “elevate cellular expression of the ABCA-1 gene”.
Next, `COC(=O)c1ccc(C(=O)NC2=NC(=O)CS2)cc1` [methyl 4-[N-(4-oxo-1,3-thiazolin-2-yl)carbamoyl]benzoate]: “elevate cellular expression of the ABCA-1 gene”.
Next, `O=C(Nc1nc2ccccc2s1)c1sc2ccccc2c1Cl` [N-benzothiazol-2-yl(3-chlorobenzo[b]thiophen-2-yl)carboxamide]: “elevate cellular expression of the ABCA-1 gene”; `Cc1ccc(-c2ccc3c(N)c(C#N)sc3n2)cc1` [3-amino-6-(4-methylphenyl)thiopheno[2,3-b]pyridine-2-carbonitrile]: “elevate cellular expression of the ABCA-1 gene”; `O=C1CSC(NC(=O)c2ccc(Cl)cc2)=N1` [(4-chlorophenyl)-N-(4-oxo(1,3-thiazolin-2-yl))carboxamide]: “elevate cellular expression of the ABCA-1 gene”.
Turning to `Cc1ccc2nc(-c3ccc(NC(=O)c4ccco4)cc3)sc2c1` [2-furyl-N-[4-(6-methylbenzothiazol-2-yl)phenyl]carboxamide], the “cellular expression of the ABCA-1 gene” value is listed as “elevate cellular expression of the ABCA-1 gene”.
Next, `Nc1ccccc1C(=O)Nc1ccc(Cl)cc1` [(2-aminophenyl)-N-(4-chlorophenyl)carboxamide]: “elevate cellular expression of the ABCA-1 gene”.
The same measure for `Cc1ccc(NC(=O)Nc2cccc(Cl)c2)cc1C` [N-(3,4-dimethylphenyl)[(3-chlorophenyl)amino]carboxamide]: “elevate cellular expression of the ABCA-1 gene”.
Next, `O=C(Nc1nc(-c2ccc3ccccc3c2)cs1)c1ccc(F)cc1F` [(2,4-difluorophenyl)-N-(4-(2-naphthyl)(1,3-thiazol-2-yl))carboxamide]: “elevate cellular expression of the ABCA-1 gene”.
With `O=C(Nc1ncc(-c2ccc(F)cc2)s1)c1ccco1` [N-[5-(4-fluorophenyl)(1,3-thiazol-2-yl)]-2-furylcarboxamide], the “cellular expression of the ABCA-1 gene” value was “elevate cellular expression of the ABCA-1 gene”.
Next, “N-(4-naphthyl(1,3-thiazol-2-yl))(4-phenylphenyl)carboxamide”: “elevate cellular expression of the ABCA-1 gene”; `O=C(NCCc1ccccc1F)c1ccc2oc(N3CCCN(C(=O)CCc4c[nH]c5ccccc45)CC3)nc2c1` [N-[2-(2-fluorophenyl)ethyl]{2-[4-(3-indol-3-ylpropanoyl)(1,4-diazaperhydroepinyl)]benzoxazol-5-yl}carboxamide]: “elevate cellular expression of the ABCA-1 gene”.
Next, `O=C(Nc1ccccc1)Nc1ccc2c(c1)CCC2` [N-indan-5-yl(phenylamino)carboxamide]: “elevate cellular expression of the ABCA-1 gene”.
Next, `Nc1cc(C(F)(F)F)ccc1N1CCc2ccccc2C1` [2-(2-1,2,3,4-tetrahydroisoquinolyl)-5-(trifluoromethyl)phenylamine]: “elevate cellular expression of the ABCA-1 gene”; `N#Cc1ccc(C(=O)Nc2nc3c(Cl)cccc3s2)cc1` [N-(4-chlorobenzothiazol-2-yl)(4-cyanophenyl)carboxamide]: “elevate cellular expression of the ABCA-1 gene”; `Cc1ccc(-c2csc(-n3ncc(C(=O)NC4CC5CCC4C5)c3C)n2)cc1` (centres unmarked) [N-bicyclo[2.2.1]hept-2-yl {5-methyl-1-[4-(4-methylphenyl)(1,3-thiazol-2-yl)]pyrazol-4-yl}carboxamide]: “elevate cellular expression of the ABCA-1 gene”.

For the origin of these results see US6900219B2, “ABCA-1 elevating compounds” (CV Therapeutics, Inc., priority 2002, dated 2005).
